Laboratory results as given in patent US10266609B2, “Immunomodulating beta-1,6-D-glucans” (Innate Biotherapeutics, LLC, priority 2014, dated 2019).

test system: Anti-β-1,6-Glucan IgG antibodies (affinity purified from IVIG, Baxter); assay: ELISA: binding of oligosaccharides to anti-β-1,6-glucan antibodies; conditions: plate coated with oligosaccharide in PBS; 40 ug/mL anti-Beta 1,6 Glucan IgG; anti-human IgG-HRP, TMB, absorbance at 620 nm; note: key: a plus (+) sign indicates that the glucan was active in the assay; a minus (−) sign indicates that the glucan was not active; the '+/−' symbol indicates inconclusive results
Protocol: Binding of oligosaccharides to anti-β-1,6-glucan antibodies is performed as described in the following protocol.
• 1. […] Anti-β-1,6-Glucan IgG antibodies (affinity purified from IVIG, Baxter) • 6. […] PBS-Tween buffer (PH 7.2, 0.05% Tween 20, Kpl cat #51-12-01) II. Method: Detection of Anti-Beta Glucan IgG by ELISA • 1. Coat plate with oligosaccharides in PBS overnight at 4° C. • 2. Wash 3 times with 250 uL of PBS-Tween • 3. Empty plate • 4. Block plate with 200 uL of Casein for 1 hour at room temperature • 5. Empty plate • 6. Add 40 ug/mL anti-Beta 1,6 Glucan IgG (4 ug/well) in Casein • 7. Incubate for 45 min at room temperature • 8. Wash 3 times with 250 uL of PBS-Tween • 9. Empty plate • 10. Add detection antibody: anti-human IgG-HRP at 1:5000—in casein. Incubate for 45 min at room temperature in the dark • 11. Wash 5 times with 250 uL of PBS-Tween • 12. Empty plate • 13. Add 100 uL of one step ultra TMB • 14. Measure the absorbance at 620 nm every 1 min for 60 min Tables 1-3 provide ELISA assay data for certain glucan compounds.

| Compound | ELISA assay data: glucan active in detection of anti-beta glucan IgG |
| --- | --- |
| 1-O-[2-(2-oxymethoxy)ethoxy]-6-O—[O-β-D-glucopyranosyl-(1,6)]3-β-D-glucopyranoside [β-O(CH2)2O(CH2)2C═O, n=4] | + |
| 3,5-bis(1-[2-[O-β-D-glucopyranosyl-(1→6)-O-β-D-glucopyranosyl-(1→6)-O-β-D-glucopyranosyl-(1→6)-α-D-glucopyranosyl]oxy]ethyl-1H-1,2,3-triazol-4-yl)methoxybenzoic acid [(β-D-glucopyanosy1-1,6)nα-O(CH2)2-, n=4] | + |
| O=C(O)C1CCN(CC(O)[C@@H](O)[C@H](O)[C@H](O)CO[C@@H]2O[C@H](CO[C@@H]3O[C@H](CO[C@@H]4O[C@H](CO)[C@@H](O)[C@H](O)[C@H]4O)[C@@H](O)[C@H](O)[C@H]3O)[C@@H](O)[C@H](O)[C@H]2O)C1 (mixture of isomers) [3-pyrrolidineCO2H, n=3] | + |
| O=C(O)C1CCN(CC(O)[C@@H](O)[C@H](O)[C@H](O)CO[C@@H]2O[C@H](CO[C@@H]3O[C@H](CO[C@@H]4O[C@H](CO[C@@H]5O[C@H](CO)[C@@H](O)[C@H](O)[C@H]5O)[C@@H](O)[C@H](O)[C@H]4O)[C@@H](O)[C@H](O)[C@H]3O)[C@@H](O)[C@H](O)[C@H]2O)C1 (mixture of isomers) [3-pyrrolidineCO2H, n=4] | + |
| O=C(O)C1CCN(CC(O)[C@@H](O)[C@H](O)[C@H](O)CO[C@@H]2O[C@H](CO[C@@H]3O[C@H](CO[C@@H]4O[C@H](CO[C@@H]5O[C@H](CO[C@@H]6O[C@H](CO)[C@@H](O)[C@H](O)[C@H]6O)[C@@H](O)[C@H](O)[C@H]5O)[C@@H](O)[C@H](O)[C@H]4O)[C@@H](O)[C@H](O)[C@H]3O)[C@@H](O)[C@H](O)[C@H]2O)C1 (mixture of isomers) [3-pyrrolidineCO2H, n=5] | + |
| O=C(O)C1CCN(CC(O)[C@@H](O)[C@H](O)[C@H](O)CO[C@@H]2O[C@H](CO[C@@H]3O[C@H](CO[C@@H]4O[C@H](CO)[C@@H](O)[C@H](O)[C@H]4O)[C@@H](O)[C@H](O)[C@H]3O)[C@@H](O)[C@H](O)[C@H]2O)CC1 (mixture of isomers) [4-piperidineCO2H, n=3, N-[6-[(O-β-D-glucopyranosyl-(1,6))2-β-D-glucopyranosyl](2RS,3R,4R,5R)-2,3,4,5-tetrahydroxyhexyl]piperidine-4-carboxylic acid] | + |
| O=C(O)C1CCN(CC(O)[C@@H](O)[C@H](O)[C@H](O)CO[C@@H]2O[C@H](CO[C@@H]3O[C@H](CO[C@@H]4O[C@H](CO[C@@H]5O[C@H](CO)[C@@H](O)[C@H](O)[C@H]5O)[C@@H](O)[C@H](O)[C@H]4O)[C@@H](O)[C@H](O)[C@H]3O)[C@@H](O)[C@H](O)[C@H]2O)CC1 (mixture of isomers) [4-piperidineCO2H, n=4] | + |
| O=C(O)C1CCN(CC(O)[C@@H](O)[C@H](O)[C@H](O)CO[C@@H]2O[C@H](CO[C@@H]3O[C@H](CO[C@@H]4O[C@H](CO[C@@H]5O[C@H](CO[C@@H]6O[C@H](CO)[C@@H](O)[C@H](O)[C@H]6O)[C@@H](O)[C@H](O)[C@H]5O)[C@@H](O)[C@H](O)[C@H]4O)[C@@H](O)[C@H](O)[C@H]3O)[C@@H](O)[C@H](O)[C@H]2O)CC1 (mixture of isomers) [4-piperidineCO2H, n=5] | + |
| O=C(O)c1cc(OCc2cn(CCO[C@H]3O[C@H](CO[C@@H]4O[C@H](CO[C@@H]5O[C@H](CO)[C@@H](O)[C@H](O)[C@H]5O)[C@@H](O)[C@H](O)[C@H]4O)[C@@H](O)[C@H](O)[C@H]3O)nn2)cc(OCc2cn(CCO[C@H]3O[C@H](CO[C@@H]4O[C@H](CO[C@@H]5O[C@H](CO)[C@@H](O)[C@H](O)[C@H]5O)[C@@H](O)[C@H](O)[C@H]4O)[C@@H](O)[C@H](O)[C@H]3O)nn2)c1 [(β-D-glucopyanosy1-1,6)nα-O(CH2)2-, n=3, 3,5-bis(1[2-[O-β-D-glucopyranosyl-(1→6)-O-β-D-glucopyranosyl-(1→6)-α-D-glucopyranosyl]oxy]ethyl-1H-1,2,3-triazol-4-yl)methoxybenzoic acid] | + |

More lines, now with the values ahead:

| ELISA assay data: glucan active in detection of anti-beta glucan IgG | Compound |
| --- | --- |
| + | CN(Cc1ccc(C(=O)O)cc1)CC(O)[C@@H](O)[C@H](O)[C@H](O)CO[C@@H]1O[C@H](CO[C@@H]2O[C@H](CO[C@@H]3O[C@H](CO[C@@H]4O[C@H](CO)[C@@H](O)[C@H](O)[C@H]4O)[C@@H](O)[C@H](O)[C@H]3O)[C@@H](O)[C@H](O)[C@H]2O)[C@@H](O)[C@H](O)[C@H]1O (mixture of isomers) [N(Me),N(CH2)4-BzOH, n=4] |
| + | CN(Cc1ccc(C(=O)O)cc1)CC(O)[C@@H](O)[C@H](O)[C@H](O)CO[C@@H]1O[C@H](CO[C@@H]2O[C@H](CO[C@@H]3O[C@H](CO[C@@H]4O[C@H](CO[C@@H]5O[C@H](CO)[C@@H](O)[C@H](O)[C@H]5O)[C@@H](O)[C@H](O)[C@H]4O)[C@@H](O)[C@H](O)[C@H]3O)[C@@H](O)[C@H](O)[C@H]2O)[C@@H](O)[C@H](O)[C@H]1O (mixture of isomers) [N(Me),N(CH2)4-BzOH, n=5] |
| + | CN(Cc1ccc(C(=O)O)cc1)CC(O)[C@@H](O)[C@H](O)[C@H](O)CO[C@@H]1O[C@H](CO[C@@H]2O[C@H](CO[C@@H]3O[C@H](CO[C@@H]4O[C@H](CO[C@@H]5O[C@H](CO[C@@H]6O[C@H](CO)[C@@H](O)[C@H](O)[C@H]6O)[C@@H](O)[C@H](O)[C@H]5O)[C@@H](O)[C@H](O)[C@H]4O)[C@@H](O)[C@H](O)[C@H]3O)[C@@H](O)[C@H](O)[C@H]2O)[C@@H](O)[C@H](O)[C@H]1O (mixture of isomers) [N(Me),N(CH2)4-BzOH, n=6] |
| + | CN(CCCCCN)CC(O)[C@@H](O)[C@H](O)[C@H](O)CO[C@@H]1O[C@H](CO[C@@H]2O[C@H](CO[C@@H]3O[C@H](CO)[C@@H](O)[C@H](O)[C@H]3O)[C@@H](O)[C@H](O)[C@H]2O)[C@@H](O)[C@H](O)[C@H]1O (mixture of isomers) [N(Me),N(CH2)5NH2, n=3] |
| + | CN(CCCCCN)CC(O)[C@@H](O)[C@H](O)[C@H](O)CO[C@@H]1O[C@H](CO[C@@H]2O[C@H](CO[C@@H]3O[C@H](CO[C@@H]4O[C@H](CO[C@@H]5O[C@H](CO)[C@@H](O)[C@H](O)[C@H]5O)[C@@H](O)[C@H](O)[C@H]4O)[C@@H](O)[C@H](O)[C@H]3O)[C@@H](O)[C@H](O)[C@H]2O)[C@@H](O)[C@H](O)[C@H]1O (mixture of isomers) [N(Me),N(CH2)5NH2, n=5] |
| + | CN(CCCCCN)CC(O)[C@@H](O)[C@H](O)[C@H](O)CO[C@@H]1O[C@H](CO[C@@H]2O[C@H](CO[C@@H]3O[C@H](CO[C@@H]4O[C@H](CO[C@@H]5O[C@H](CO[C@@H]6O[C@H](CO)[C@@H](O)[C@H](O)[C@H]6O)[C@@H](O)[C@H](O)[C@H]5O)[C@@H](O)[C@H](O)[C@H]4O)[C@@H](O)[C@H](O)[C@H]3O)[C@@H](O)[C@H](O)[C@H]2O)[C@@H](O)[C@H](O)[C@H]1O (mixture of isomers) [N(Me),N(CH2)5NH2, n=6] |
| + | [N-]=[N+]=NCCO[C@@H]1O[C@H](CO[C@@H]2O[C@H](CO[C@@H]3O[C@H](CO[C@@H]4O[C@H](CO)[C@@H](O)[C@H](O)[C@H]4O)[C@@H](O)[C@H](O)[C@H]3O)[C@@H](O)[C@H](O)[C@H]2O)[C@@H](O)[C@H](O)[C@H]1O (stereo in doubt) [β-O(CH2)2N3, n=4, 2-Azido ethyl [O-β-D-glucopyranosyl-1,6]3-β-D-glucopyranoside] |
| + | O=C(O)c1cc(OCc2cn(CCO[C@@H]3O[C@H](CO[C@@H]4O[C@H](CO[C@@H]5O[C@H](CO[C@@H]6O[C@H](CO)[C@@H](O)[C@H](O)[C@H]6O)[C@@H](O)[C@H](O)[C@H]5O)[C@@H](O)[C@H](O)[C@H]4O)[C@@H](O)[C@H](O)[C@H]3O)nn2)cc(OCc2cn(CCO[C@@H]3O[C@H](CO[C@@H]4O[C@H](CO[C@@H]5O[C@H](CO[C@@H]6O[C@H](CO)[C@@H](O)[C@H](O)[C@H]6O)[C@@H](O)[C@H](O)[C@H]5O)[C@@H](O)[C@H](O)[C@H]4O)[C@@H](O)[C@H](O)[C@H]3O)nn2)c1 [(β-D-glucopyanosy1-1,6)nβ-O(CH2)2-, n=4, 3,5-bis(1[2-[O-β-D-glucopyranosyl-(1→6)]4oxy]ethyl-1H-1,2,3-triazol-4-yl)methoxybenzoic acid] |
